According to the METLIN SMRT retention time set (Domingo-Almenara et al. 2019):

Experiment: gradient 5% acetonitrile 3 min, to 50% in 2 min, to 85% in 15 min, held 3 min, 100 µL/min
Conditions: column: Zorbax Extend-C18 2.1 x 50 mm; eluents: water / acetonitrile, 0.1% formic acid
Method in brief: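 The mobile phases were water and acetonitrile, each with 0.1% formic acid, pumped at 100 μL/min through a Zorbax Extend-C18 column (2.1 × 50 mm, 1.8 μm). Pure standards were injected as mixtures of ~100 molecules and detected by a quadrupole time-of-flight mass spectrometer in positive and negative ionization mode. Retention time came from computationally picked adduct peaks, each inspected by hand.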

Row | Structure (SMILES) | RP-LC retention time
1 | Cc1ccccc1Nc1c(-c2ccc(O)cc2)nc2ccccn12 | 653 s
2 | Cc1csc(-c2ccc(N3CCN(C(=O)c4cccc(F)c4)CC3)nc2)n1 | 822 s
3 | CC(=O)c1ccc(Oc2ccccc2)cc1 | 920 s
4 | O=C(Nc1cnc2c(c1)CCC2)C1CCCC1 | 522 s
5 | N#Cc1ccc(NC(=O)Cn2cccc(-c3nc(-c4ccc(Cl)cc4)no3)c2=O)cc1 | 933 s
6 | CCN(C(=O)Cn1nc(S(=O)(=O)c2ccc(Cl)cc2)ccc1=O)c1ccccc1 | 920 s
7 | CCCNC(=O)N1[C@H]2CC[C@@H]1c1cnc(-c3ccccc3)nc1C2 | 790 s
8 | Cc1oc(-c2cccc(Cl)c2)nc1CN(c1ccccc1)S(=O)(=O)c1cccs1 | 1260 s
9 | Cc1ccc(CC(=O)NC2CCN(c3ccc(C)c(C)c3)C2=O)cc1 (stereo not drawn) | 904 s
10 | CCCS(=O)(=O)N1CC(=O)N(c2ccc(F)cc2)C(C)(C(=O)NC2CCCCCC2)C1 (stereo not drawn) | 938 s
11 | O=C(c1ccc(F)cc1)N1CCN(c2ccc(N3CCCC3)nn2)CC1 | 604 s
12 | Cc1ccc(C)c(C(=O)N2CCc3c(c(-c4nc(C5CC5)no4)nn3C)C2)c1 | 854 s
13 | CC(NC(=O)CCNc1c(-c2cccc(F)c2)nc2cnccn12)c1cccs1 (stereo not drawn) | 728 s
14 | CCc1nc(-c2ccc3c(c2)CCN3C(=O)COc2ccc(OC)cc2)no1 | 1000 s
15 | Cc1nc(-c2csc(S(=O)(=O)N3CCCC(C(=O)Nc4cccc(F)c4)C3)c2)no1 (stereo not drawn) | 978 s
16 | O=C(CC1CCCCC1)NCC(=O)Nc1nc2ccccc2[nH]1 | 661 s
17 | Cc1ccc(-n2c(=O)n(C)c(=O)c3cc(C(=O)Nc4ccccc4C(N)=O)cnc32)cc1 | 857 s
18 | Cc1ccc(NC(=O)N2CCN(Cc3nc4cc(C)ccc4o3)CC2)cc1 | 725 s
19 | O=C(NCC1CCN(C(=O)c2cc3ccccc3o2)CC1)C(=O)Nc1cccnc1 | 601 s
20 | CCOC(=O)C1=C(CN2CCN(c3ccccn3)CC2)NC(=O)NC1c1ccc(OC)cc1 (stereo not drawn) | 612 s
21 | Cc1ccc(Nc2c(-c3ccc(Cl)cc3)nc3cc(C)ccn23)cc1 | 807 s
22 | FC(F)(F)c1cccc(-c2cncc(N3CCN(c4ccccn4)CC3)n2)c1 | 740 s

Row | Structure (SMILES) | RP-LC retention time
23 | Cc1ccc(CNC(=O)C2CCCN(S(=O)(=O)c3c[nH]c(C(=O)N4CCCC4)c3)C2)cc1 (stereo not drawn) | 762 s
24 | Cc1c(C(=O)NCCCN2CCOCC2)oc2ccc3c(c12)C(O)CC1(CCCCC1)O3 (stereo not drawn) | 688 s
25 | COc1ccc(C2(C(=O)Nc3cc(-c4cccnc4)no3)CC2)cc1 | 816 s
26 | CCCN(CC1CCOC1)C(=O)c1cccc(Cl)c1 (stereo not drawn) | 814 s
27 | O=C(CC1CCCCC1)Nc1ccc(-c2cn3cccnc3n2)cc1 | 688 s
28 | COc1ccc(-c2cc(N3CCN(C(=O)NCC(C)C)CC3)ncn2)cc1OC | 623 s
29 | COc1ccc(-c2nc(C)cc(C)c2CNS(=O)(=O)c2ccc(C#N)cc2)cc1 | 636 s
30 | Cc1ccc(S(=O)(=O)N(C)c2ccc(C(=O)N3C(C)CCCC3C)cc2)cc1 (stereo not drawn) | 961 s
31 | O=C(Nc1ccc(Cl)cc1)c1cnc(-c2ccc(F)cc2)nc1-c1ccncc1 | 986 s
32 | CC(C)c1ccc(-c2nc(C3CC(=O)N(c4ccc(Cl)cc4)C3)no2)cc1 (stereo not drawn) | 1300 s
33 | Cc1cc(C)nc(Nc2nc(-c3ccccc3)c(CC(=O)O)s2)n1 | 710 s
34 | O=C(Nc1ccccc1C(F)(F)F)N1CCc2nc[nH]c2C1 | 558 s
35 | CC(C)NC(=O)N(CC(=O)N1CCc2sccc2C1COc1cccc(F)c1)C1CC1 (stereo not drawn) | 942 s
36 | COC(=O)C1=CN(c2cccc(Cl)c2)c2cc(F)ccc2S1(=O)=O | 897 s
37 | CC(NC(=O)C(=O)NCc1nc(-c2ccccc2)no1)c1ccccc1 (stereo not drawn) | 856 s
38 | CCc1ccc(-c2noc(CSc3nc4cc5c(cc4c(=O)n3CCOC)OCO5)n2)cc1 | 1190 s
39 | O=C(CN1C(=O)CCc2cc(Br)ccc21)NCc1ccccc1 | 784 s
40 | O=C(CCCN1CCN(Cc2ccc(F)cc2)C(=O)C1=O)Nc1ccc(Br)cc1F | 814 s
41 | Cc1ccc2c(c1)C(O)(CC(=O)c1cccc(-n3cccc3)c1)C(=O)N2 (stereo not drawn) | 711 s
42 | Cc1ccc(S(=O)(=O)Nc2ccc3c(c2)nc(-c2ccc(C(=O)NC(C)C)cc2)n3C)cc1 | 695 s
43 | CC(=O)c1cccc(NC(=O)Cn2c(=O)n(-c3ccccc3)c(=O)c3c2cc(C)n3C)c1 | 763 s
44 | CCCCN1CCN(C(=O)C2c3ccccc3CCN2C(=O)CC)CC1 (stereo not drawn) | 626 s

Row | Structure (SMILES) | RP-LC retention time
45 | Cc1cc(N2CCN(C(=O)Nc3cccc(C(F)(F)F)c3)CC2)nc(N2CCOCC2)n1 | 675 s
46 | O=S(=O)(c1ccc(-c2noc(-c3ccc(F)c(F)c3)n2)cc1)N1CCCC1 | 1210 s
47 | Cc1cc2nn(CC(=O)Nc3cc(F)cc(F)c3)c(=O)n2c(Nc2ccc(F)c(C)c2)n1 | 1070 s
48 | CCCS(=O)(=O)c1nc2ccc(NS(=O)(=O)c3ccc4c(c3)oc(=O)n4C)cc2s1 | 847 s
49 | C=CCNC(=O)c1sc(Nc2ccc(Cl)cn2)nc1C | 746 s
50 | CCc1nccn1Cc1noc(-c2ccc(Cl)cc2)n1 | 668 s
51 | O=C(Cn1c(=O)n(-c2ccc(F)cc2)c2ncccc21)NCCCN1CCOCC1 | 804 s
52 | COC[C@@H]1CN(Cc2cccc(C#N)c2)C[C@H]1c1ccccn1 | 608 s
53 | COc1cccc(CNC(=O)C2CCCN(S(=O)(=O)c3cc(-c4noc(C)n4)cs3)C2)c1 (stereo not drawn) | 874 s
54 | Cc1nn(C)c(C)c1CNC(=O)c1cccc2[nH]cc(CN3CCCC3)c12 | 600 s
55 | Cn1cnc2c(C(=O)N3CCC(c4ccccc4)C3)nn(-c3ccccc3)c2c1=O (stereo not drawn) | 851 s
56 | CN(C)c1nc(Nc2ccc3c(c2)OCO3)c2cnn(-c3ccccc3)c2n1 | 1220 s
57 | COc1ccc(-c2nnc(-c3ccccc3Cl)o2)cc1S(=O)(=O)N1CCOCC1 | 871 s
58 | O=C(CCC1CCN(S(=O)(=O)c2ccccc2F)CC1)NC1CCS(=O)(=O)C1 (stereo not drawn) | 685 s
59 | COc1ccc(-c2ncccc2CNS(=O)(=O)c2cccc(OC)c2)cc1 | 670 s
60 | CCOC(=O)c1nc(NCc2ccc3c(c2)OCO3)c2ccccc2n1 | 719 s
61 | O=C(NCc1ccc(F)cc1F)c1csc(C(=O)NC2CCCC2)n1 | 895 s
62 | CC1CCC(NC(=O)C2CCN(S(=O)(=O)c3ccc4c(c3)NC(=O)C(C)O4)CC2)CC1 (stereo not drawn) | 876 s
63 | O=C(NCCn1cnc2cc(C(=O)N3CCCC3)ccc21)Nc1ccc2c(c1)CCC2 | 645 s
64 | CCOc1ccc(-c2ccc(=O)n(CCCC(=O)Nc3ccccc3SC)n2)cc1 | 853 s
65 | CCOC(=O)Cn1c(=N)n(CCN2CCOCC2)c2ccccc21 | 548 s
66 | CC1CCN(C(=O)C2CC(=O)N(CCc3c[nH]c4ccc(Cl)cc34)C2)CC1 (stereo not drawn) | 855 s

Row | Structure (SMILES) | RP-LC retention time
67 | O=C(CCc1c(-c2cccc(Cl)c2)nc2ccccn12)N1CCN(c2ccccc2)CC1 | 718 s
68 | COc1ccc(-c2nc(N3CCOCC3)c3ccccc3n2)cc1 | 669 s
69 | COCCN1C(=O)[C@H]2CN(Cc3ccccc3C(F)(F)F)C[C@H]2C1=O | 849 s
70 | CC(C)NC(=O)c1ccc(-c2nc3cc(NS(=O)(=O)Cc4ccccc4)ccc3n2C)cc1 | 667 s
71 | CCc1ccc2c(c1)cc(S(=O)(=O)c1ccccc1)c(=O)n2CC(=O)NCCCOC | 808 s
72 | O=C1CCCc2cc(S(=O)(=O)NCCCN3CCN(Cc4ccccc4)CC3)ccc2N1 | 581 s
73 | O=[N+]([O-])c1cc(F)c2cccnc2c1O | 773 s
74 | Cc1ccccc1CNC(=O)C1(C)CCN(S(=O)(=O)c2ccc(C3CCCCC3)cc2)CC1 | 1310 s
75 | O=C(NCc1ccccn1)c1cccc2c1CCN2C(=O)c1ccc(F)cc1 | 644 s
76 | Cc1cnn(Cc2nc(-c3ccc(NC(=O)CC4CCCC4)cc3)oc2C)c1 | 930 s
77 | O=C(Nc1ccc(Br)cc1F)Nc1c(-c2ccc(F)cc2)nc2ccccn12 | 744 s
78 | CCC(CO)NC(=O)C(=O)NCCC1=CCCCC1 (stereo not drawn) | 724 s
79 | Cc1ccc(-c2cc3c(=O)n(Cc4nc(-c5cccc(Br)c5)no4)ncn3n2)c(C)c1 | 1320 s
80 | CNC(=O)[C@@H]1C[C@@H](O)CN1C1CCN(C(=O)CC2=CCCCC2)CC1 | 574 s
81 | Cc1[nH]c(C)c(S(=O)(=O)N2CCC(C(=O)Nc3ccc(F)cc3F)CC2)c1C(=O)N1CCCC1 | 676 s
82 | O=C(c1ccoc1)N1CCCn2cc(-c3ccccc3F)nc21 | 649 s
83 | Cn1ccc2cc(S(=O)(=O)N3CCC(C(=O)NCc4ccccn4)CC3)ccc21 | 641 s
84 | Cc1c(S(=O)(=O)N2c3ccccc3CC2C)cc(C(=O)N2CCC(C)CC2)n1C (stereo not drawn) | 723 s
85 | Cc1cccc(NC(=O)COc2cccc3c(=O)n(C)ccc23)c1 | 798 s
86 | Cc1ccc(NC(=O)C2CC(=O)N(c3ccc4oc(C)nc4c3)C2)c(C)c1 (stereo not drawn) | 741 s
87 | Cc1nnsc1C(=O)N1CCC(C(=O)Nc2nccs2)CC1 | 625 s
88 | CN(C)c1cccc(C(=O)N2CCN(C(=O)c3nnn4c3COC(c3ccccc3)C4)CC2)c1 (stereo not drawn) | 799 s
